Drawing on patent US20240398828A1, “HETERO-ATOM CONTAINING COMPOUNDS AND USES THEREOF” (Kumquat Biosciences Inc., priority 2021, published 2024), this text covers IC50 for 24 compounds.

The target in assay [1] is T1, PTPN2 (i.e., TC-PTP) (Homo sapiens, UniProt P17706).
T1 sequence (P17706 1-415): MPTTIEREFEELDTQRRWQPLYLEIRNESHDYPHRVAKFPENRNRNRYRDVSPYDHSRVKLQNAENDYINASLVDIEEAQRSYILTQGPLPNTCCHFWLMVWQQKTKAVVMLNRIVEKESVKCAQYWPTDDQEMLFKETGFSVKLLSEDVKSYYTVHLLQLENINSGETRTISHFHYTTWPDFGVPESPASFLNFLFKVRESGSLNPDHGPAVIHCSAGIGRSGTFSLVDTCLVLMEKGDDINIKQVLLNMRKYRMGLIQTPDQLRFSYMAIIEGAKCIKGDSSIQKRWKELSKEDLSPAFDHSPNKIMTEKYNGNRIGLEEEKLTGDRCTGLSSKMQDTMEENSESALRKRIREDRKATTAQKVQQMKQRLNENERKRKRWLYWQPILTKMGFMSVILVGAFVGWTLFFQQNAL
As to the kind of experiment: Phosphatase activity assay (DiFMUP substrate), PTPN2. The format is biochemical. The conditions noted are these: compounds binned ≤1 uM or >1 uM. In outline:
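Enzyme (e.g. PTPN2 0.025 ng/ul) mixed about 2 min with compound at 10 serial concentrations in 50 mM HEPES pH 7.5, 150 mM NaCl, 0.5 mM EDTA, 1 mM DTT, 0.001% Tween-20 at room temperature. DiFMUP added at each enzyme's Km (about 45 μM for PTPN2). DiFMU fluorescence (ex 360/em 450 nm) followed 15-30 min; IC50 from 4-parameter fit of rates.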

Assay [2] deals with T2, PTPN1 (i.e., PTP1B) (Homo sapiens, UniProt P18031).
T2 sequence (P18031 1-435): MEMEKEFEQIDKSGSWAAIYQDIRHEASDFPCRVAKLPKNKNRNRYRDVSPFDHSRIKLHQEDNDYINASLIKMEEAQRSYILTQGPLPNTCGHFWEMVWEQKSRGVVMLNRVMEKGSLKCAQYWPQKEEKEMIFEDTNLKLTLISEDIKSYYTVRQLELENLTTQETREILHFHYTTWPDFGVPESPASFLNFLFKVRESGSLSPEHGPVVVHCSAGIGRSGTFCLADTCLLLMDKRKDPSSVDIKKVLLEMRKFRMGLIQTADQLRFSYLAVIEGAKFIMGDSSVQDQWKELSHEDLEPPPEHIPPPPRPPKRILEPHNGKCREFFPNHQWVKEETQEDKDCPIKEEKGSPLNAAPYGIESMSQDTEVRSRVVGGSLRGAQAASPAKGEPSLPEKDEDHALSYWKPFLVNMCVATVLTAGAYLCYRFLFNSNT
Description: Phosphatase activity assay (DiFMUP substrate), PTP1B. The format is biochemical. As to conditions: compounds binned ≤1 uM or >1 uM. In outline: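 Continuous fluorogenic readout of DiFMUP dephosphorylation at room temperature, substrate set at Km for each phosphatase (about 45 μM in the PTPN2 assay). The buffer contains 1 mM DTT and 0.001% Tween-20, pH 7.5.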

What is called IC50 is the concentration needed to halve the response being measured.

For `CC(C)CCn1cnc(-c2ccc(O)c(C3CC(=O)NS3(=O)=O)c2F)c1` (stereo not drawn) [Compound 246, 5-(2-fluoro-6-hydroxy-3-(1-isopentyl-1H-imidazol-4-yl)phenyl)isothiazolidin-3-one 1,1-dioxide], the IC50 in assay [1] and in assay [2] was over 1 µM throughout.
`O=C1CN(c2c(O)ccc(-c3cc(C(F)(F)F)n[nH]3)c2F)S(=O)(=O)N1` [Compound 247, 5-(2-fluoro-6-hydroxy-3-(3-(trifluoromethyl)-1H-pyrazol-5-yl)phenyl)-1,2,5-thiadiazolidin-3-one 1,1-dioxide]: the IC50 in assay [1] and in assay [2] was at most 1 µM in each case.
In the case of `O=C1CN(c2c(O)ccc(-c3cc(N4CCC5(CCC5)C4)n[nH]3)c2F)S(=O)(=O)N1` [Compound 248, 5-(3-(3-(6-azaspiro[3.4]octan-6-yl)-1H-pyrazol-5-yl)-2-fluoro-6-hydroxyphenyl)-1,2,5-thiadiazolidin-3-one 1,1-dioxide], the IC50 in assay [1] and in assay [2] was at most 1 µM in each case.
Consider `O=C1CN(c2c(O)ccc(-c3cnc(C4CC4)o3)c2F)S(=O)(=O)N1` [Compound 249, 5-(3-(2-cyclopropyloxazol-5-yl)-2-fluoro-6-hydroxyphenyl)-1,2,5-thiadiazolidin-3-one 1,1-dioxide], for which the IC50 in assay [1] and in assay [2] was at most 1 µM throughout.
As for `N#C[C@H]1CC[C@H](n2cnc(-c3ccc(O)c(N4CC(=O)NS4(=O)=O)c3F)c2)CC1` [Compound 250, (1r,4r)-4-(4-(3-(1,1-dioxido-4-oxo-1,2,5-thiadiazolidin-2-yl)-2-fluoro-4-hydroxyphenyl)-1H-imidazol-1-yl)cyclohexane-1-carbonitrile], the IC50 in assay [1] is over 1 µM; in assay [2], at most 1 µM.
Turning to `O=C1CN(c2c(O)ccc(C3=CCN(S(=O)(=O)CCC(F)(F)F)C3)c2F)S(=O)(=O)N1` [Compound 251, 5-(2-fluoro-6-hydroxy-3-(1-((3,3,3-trifluoropropyl)sulfonyl)-2,5-dihydro-1H-pyrrol-3-yl)phenyl)-1,2,5-thiadiazolidin-3-one 1,1-dioxide], the IC50 in assay [1] and in assay [2] was at most 1 µM in each case.
Turning to `CN1CC2(C1)CN(c1cc(-c3ccc(O)c(N4CC(=O)NS4(=O)=O)c3F)[nH]n1)C2` [Compound 252, 5-(2-fluoro-6-hydroxy-3-(3-(6-methyl-2,6-diazaspiro[3.3]heptan-2-yl)-1H-pyrazol-5-yl)phenyl)-1,2,5-thiadiazolidin-3-one 1,1-dioxide], the IC50 in assay [1] and in assay [2] was at most 1 µM throughout.
Regarding `O=C1CN(c2c(O)ccc(-c3cc(C#CC4CCCCC4)n[nH]3)c2F)S(=O)(=O)N1` [Compound 253, 5-(3-(3-(cyclohexylethynyl)-1H-pyrazol-5-yl)-2-fluoro-6-hydroxyphenyl)-1,2,5-thiadiazolidin-3-one 1,1-dioxide], the IC50 in assay [1] and in assay [2] was at most 1 µM in each case.
As for `Cc1c(C2CC2)n[nH]c1-c1ccc(O)c(N2CC(=O)NS2(=O)=O)c1F` [Compound 254, 5-(3-(3-cyclopropyl-4-methyl-1H-pyrazol-5-yl)-2-fluoro-6-hydroxyphenyl)-1,2,5-thiadiazolidin-3-one 1,1-dioxide], the IC50 in assay [1] and in assay [2] was at most 1 µM in each case.
As to `O=C1CN(c2c(O)ccc(-c3cc(CCCC(F)(F)F)n[nH]3)c2F)S(=O)(=O)N1` [Compound 255, 5-(2-fluoro-6-hydroxy-3-(3-(4,4,4-trifluorobutyl)-1H-pyrazol-5-yl)phenyl)-1,2,5-thiadiazolidin-3-one 1,1-dioxide], the IC50 in assay [1] and in assay [2] was at most 1 µM throughout.
Take `O=C1CN(c2c(O)ccc(-c3cc(C4CC4)no3)c2F)S(=O)(=O)N1` [Compound 256, 5-(3-(3-cyclopropylisoxazol-5-yl)-2-fluoro-6-hydroxyphenyl)-1,2,5-thiadiazolidin-3-one 1,1-dioxide]: the IC50 in assay [1] and in assay [2] was at most 1 µM throughout.
Turning to `O=C1CN(c2c(O)ccc(-c3c[nH]c(CCC4CC4)c3)c2F)S(=O)(=O)N1` [Compound 257, 5-(3-(5-(2-cyclopropylethyl)-1H-pyrrol-3-yl)-2-fluoro-6-hydroxyphenyl)-1,2,5-thiadiazolidin-3-one 1,1-dioxide], the IC50 in assay [1] and in assay [2] was at most 1 µM throughout.
For the compound `O=C1CN(c2c(O)ccc(-c3cc4ccccc4[nH]3)c2F)S(=O)(=O)N1` [Compound 258, 5-(2-fluoro-6-hydroxy-3-(1H-indol-2-yl)phenyl)-1,2,5-thiadiazolidin-3-one 1,1-dioxide], the IC50 in assay [1] and in assay [2] was at most 1 µM each time.
As for `CN1CCC(n2cc(-c3ccc(O)c(N4CC(=O)NS4(=O)=O)c3F)cn2)CC1` [Compound 259, 5-(2-fluoro-6-hydroxy-3-(1-(1-methylpiperidin-4-yl)-1H-pyrazol-4-yl)phenyl)-1,2,5-thiadiazolidin-3-one 1,1-dioxide], the IC50 in assay [1] and in assay [2] was at most 1 µM throughout.
As to `O=C1CN(c2c(O)ccc(-c3cnn(C4CC4)c3)c2Cl)S(=O)(=O)N1` [Compound 260, 5-(2-chloro-3-(1-cyclopropyl-1H-pyrazol-4-yl)-6-hydroxyphenyl)-1,2,5-thiadiazolidin-3-one 1,1-dioxide], the IC50 in assay [1] and in assay [2] was at most 1 µM in each case.
Take `O=C1CN(c2c(O)ccc(-c3ccc(NS(=O)(=O)C4CC4)cn3)c2F)S(=O)(=O)N1` [Compound 261, N-(6-(3-(1,1-dioxido-4-oxo-1,2,5-thiadiazolidin-2-yl)-2-fluoro-4-hydroxyphenyl)pyridin-3-yl)cyclopropanesulfonamide]: the concentration for half-maximal inhibition (IC50) in assay [1] and in assay [2] was at most 1 µM each time.
`CC(C)CCc1cnc(-c2ccc(O)c(N3CC(=O)NS3(=O)=O)c2F)[nH]1` [Compound 262, 5-(2-fluoro-6-hydroxy-3-(5-isopentyl-1H-imidazol-2-yl)phenyl)-1,2,5-thiadiazolidin-3-one 1,1-dioxide]: the IC50 in assay [1] and in assay [2] was at most 1 µM throughout.
On to `Cc1ncc(-c2ccc(O)c(N3CC(=O)NS3(=O)=O)c2F)[nH]1` [Compound 263, 5-(2-fluoro-6-hydroxy-3-(2-methyl-1H-imidazol-5-yl)phenyl)-1,2,5-thiadiazolidin-3-one 1,1-dioxide], for which the IC50 in assay [1] and in assay [2] was at most 1 µM each time.
As for `O=C1CN(c2c(O)ccc(-c3cnn(C(F)(F)F)c3)c2F)S(=O)(=O)N1` [Compound 264, 5-(2-fluoro-6-hydroxy-3-(1-(trifluoromethyl)-1H-pyrazol-4-yl)phenyl)-1,2,5-thiadiazolidin-3-one 1,1-dioxide], the IC50 in assay [1] and in assay [2] was at most 1 µM each time.
For the compound `O=C1CN(c2c(O)ccc(-c3cn(-c4cc(F)cc(F)c4)cn3)c2F)S(=O)(=O)N1` [Compound 265, 5-(3-(1-(3,5-difluorophenyl)-1H-imidazol-4-yl)-2-fluoro-6-hydroxyphenyl)-1,2,5-thiadiazolidin-3-one 1,1-dioxide], the IC50 in assay [1] and in assay [2] was at most 1 µM each time.
Turning to `O=C1CN(c2c(O)ccc(-c3cc(C4CCCC4)n[nH]3)c2F)S(=O)(=O)N1` [Compound 266, 5-(3-(3-cyclopentyl-1H-pyrazol-5-yl)-2-fluoro-6-hydroxyphenyl)-1,2,5-thiadiazolidin-3-one 1,1-dioxide], the IC50 in assay [1] and in assay [2] was at most 1 µM each time.
As to `O=C1CN(c2c(O)ccc(C3=CCN(CC4CCCCC4)C3)c2F)S(=O)(=O)N1` [Compound 267, 5-(3-(1-(cyclohexylmethyl)-2,5-dihydro-1H-pyrrol-3-yl)-2-fluoro-6-hydroxyphenyl)-1,2,5-thiadiazolidin-3-one 1,1-dioxide], the IC50 in assay [1] and in assay [2] was at most 1 µM each time.
In the case of `O=C1CN(c2c(O)ccc(-c3cn(C4CCC(F)(F)CC4)cn3)c2F)S(=O)(=O)N1` [Compound 268, 5-(3-(1-(4,4-difluorocyclohexyl)-1H-imidazol-4-yl)-2-fluoro-6-hydroxyphenyl)-1,2,5-thiadiazolidin-3-one 1,1-dioxide], the IC50 in assay [1] and in assay [2] was at most 1 µM throughout.
As for `CC(C)CNC1(c2cc(-c3ccc(O)c(N4CC(=O)NS4(=O)=O)c3F)nn2C)CC1` [Compound 269, 5-(2-fluoro-6-hydroxy-3-(5-(1-(isobutylamino)cyclopropyl)-1-methyl-1H-pyrazol-3-yl)phenyl)-1,2,5-thiadiazolidin-3-one 1,1-dioxide], the half-inhibitory concentration (IC50) in assay [1] and in assay [2] was at most 1 µM each time.
